Key:
[1] = tested on: rats fed a high-fat diet and sucrose supplemented (5%) drinking water; conditions: rat, in vivo
[2] = tested on: Isolated mitochondria from liver; format: cell-based, rat
[3] = tested on: Isolated mitochondria from brain; format: cell-based, rat
[4] = tested on: whole-cell brain preparations; format: cell-based
rats [5] = conditions: rat, in vivo
rats [6] = conditions: rat, in vivo; remark: listed apart in the source
[7] = rat, in vivo

With O=[N+]([O-])c1ccc(O)c([N+](=O)[O-])c1 [DNP, 2,4-dinitrophenol] the “lowest dose effective at lowering liver TAG” value [1] was 5 mg/kg, the “mitochondrial uncoupling (oxygen consumption)” value [2] was “uncoupled both tissues” and the “mitochondrial uncoupling (oxygen consumption)” value [3] was “uncoupled both tissues”. For the same compound, the uncoupling [4] was “neither DNP nor DNPME was found to uncouple”, the “lowest dose where systemic toxicities may be observed” value (rats [5]) was 25 mg/kg and the “mortality acutely after IP injection” value (rats [5]) was “rapid dose-dependent mortality”. The “rectal temperature after IP injection” value (rats [5]) was “large, dose-dependent increase”, the “doses causing increase in rectal temperatures and mortality” value (rats [5]; ip) was “above 10 mg/kg” and the “ratio of effective to toxic dose” value (rats [6]) was 0.2. The “toxic threshold of chronic treatment” value (rats [6]) was 1 mg/kg, the “peak DNP liver concentrations” value [7] was about 60 µM and the “peak plasma DNP concentration” value [7] was about 120 µM. The “peak plasma DNP concentrations” value [7] was about 380 µM and the “time of peak plasma concentrations of DNP after injection” value [7] was 1 h.
